Reference: publication PMC8895377, “In Vivo Targeting Replication Protein A for Cancer Therapy” (Frontiers in Oncology, 2022)
Like-named read-outs stand apart in the source and are kept apart here.

Tests used:
[1] = tested on: A549 adenocarcinoma xenografts; test: A549 xenograft efficacy; type: in vivo, mice
Text: To assess anticancer efficacy, the hind flanks of 60 8–10-week-old Nod SCID gamma (NSG) mice were implanted with the indicated cells (~2 × 10^6) in Matrigel. Tumor volumes were monitored by electronic caliper measurement [tumor volumes = length × (perpendicular width)^2 × 0.5]. NSG studies were approved by the Institutional Animal Care and Use Committee at Indiana University School of Medicine. Male NSG (NOD‐scid/IL2Rg^null) mice (In Vivo Therapeutics Core Facility, IU Simon Comprehensive Cancer Center, Indianapolis, IN, USA) were used and housed in a pathogen‐free facility at IUSM LARC. Mice with tumors of approximately 100 mm^3 were randomized into individual treatment arms. The indicated RPAi was formulated and administered via intraperitoneal injection (IP) at the indicated times. Tumor volumes were monitored biweekly as indicated, and the results are presented as the average tumor volume ± standard error of the mean for each group. […]
Figure 8 In vivo analysis of anticancer activity of 329. (A) Anticancer activity was assessed in human H460 NCSLC tumor xenografts in NOD/SCID mice. Mice were implanted subcutaneously on day 1 with H460 NSCLC cells, tumors were measured by calipers, and mice assigned randomly to treatment arms. […] (C) Tumor weight from A549 cells was determined on day 32. […]

[2] = Intrinsic clearance and half-life in rat microsomes; type: in vitro ADME; settings: for microsomal CLint: rat, microsomes
Text: Toward the goal to identify efficacious and safe RPAi 329 treatment regimens, we conducted single-agent screening in two lung cancer cell line-derived xenograft models. […] Having optimized cellular uptake and solubility via the addition of the propyl morpholino in 329 and 2004, we sought to determine how these modifications impact in vivo anticancer activity using two NSCLC models, A549 adenocarcinoma and H460 large cell carcinoma. […] Analyses of intrinsic clearance and half-life were conducted in mouse and rat microsomes ( Table 1 ). […] These values are less than the rate of 48, which is considered rapid clearance. In rat microsomes, rates of ~64 were obtained for 329 and are less than the rapid rate of 71.

[3] = biological target: T1, RPA–DNA interaction (purified full-length RPA) (Homo sapiens, UniProt P27694); test: EMSA of RPA–DNA interaction inhibition; type: binding; settings: 6.25, 12.5, 25, 50 µM RPAi
T1 construct: Purified full-length RPA (120 ng) was incubated with the indicated RPAi
T1 sequence (P27694 whole entry): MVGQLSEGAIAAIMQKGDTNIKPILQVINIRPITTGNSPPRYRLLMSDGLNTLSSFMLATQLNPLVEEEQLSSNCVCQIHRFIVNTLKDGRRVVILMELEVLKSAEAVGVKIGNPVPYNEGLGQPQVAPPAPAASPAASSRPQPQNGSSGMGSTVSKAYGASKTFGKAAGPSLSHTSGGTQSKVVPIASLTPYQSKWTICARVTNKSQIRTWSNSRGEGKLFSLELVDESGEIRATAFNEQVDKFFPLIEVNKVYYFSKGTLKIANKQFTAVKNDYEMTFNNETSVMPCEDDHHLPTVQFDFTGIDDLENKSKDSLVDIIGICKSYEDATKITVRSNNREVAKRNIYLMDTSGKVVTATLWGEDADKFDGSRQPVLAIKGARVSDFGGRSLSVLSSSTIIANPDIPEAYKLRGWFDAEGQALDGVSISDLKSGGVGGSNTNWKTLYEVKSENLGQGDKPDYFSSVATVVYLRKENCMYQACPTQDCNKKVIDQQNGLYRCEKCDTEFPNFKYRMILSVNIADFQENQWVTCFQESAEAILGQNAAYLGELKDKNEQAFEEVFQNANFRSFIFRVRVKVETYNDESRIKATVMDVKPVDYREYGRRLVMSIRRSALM
T1 sequence (P15927 whole entry partner): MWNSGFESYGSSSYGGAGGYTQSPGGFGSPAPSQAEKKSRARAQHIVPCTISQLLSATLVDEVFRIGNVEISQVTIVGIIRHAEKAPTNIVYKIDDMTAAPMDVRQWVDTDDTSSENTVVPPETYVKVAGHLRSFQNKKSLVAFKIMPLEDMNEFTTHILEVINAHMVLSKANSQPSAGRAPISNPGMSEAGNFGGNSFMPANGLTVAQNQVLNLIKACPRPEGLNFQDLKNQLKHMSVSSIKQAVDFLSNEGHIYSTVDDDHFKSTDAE
T1 sequence (P35244 whole entry partner): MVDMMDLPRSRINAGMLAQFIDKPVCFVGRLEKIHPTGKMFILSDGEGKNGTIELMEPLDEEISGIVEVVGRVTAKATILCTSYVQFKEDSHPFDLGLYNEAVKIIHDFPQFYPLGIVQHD
Description: EMSAs were performed as previously described ([9]). Briefly, reactions were conducted in 20 mM HEPES (pH 7.8), 1 mM DTT, 0.001% NP-40, and 50 mM NaCl. RPAis were suspended in 100% dimethlysulfoxide (DMSO), and DMSO concentration in the final reaction mixture was constant at less than 5%. Purified full-length RPA (120 ng) was incubated with the indicated RPAi or vehicle in reaction buffer for 30 min before the addition of the [^32]P-labeled 34-base ssDNA probe. Reactions were incubated for 5 min at room temperature, and products were separated via 6% native polyacrylamide gel electrophoresis. The bound and unbound fractions were quantified by phosphor-imager analysis using ImageQuant software (Molecular Dynamics, CA), and data were fit by non-linear regression using GraphPad Prism.
Figure 2 Replication protein A inhibitor (RPAi) inhibitory activity. (A) Chemical structure of RPAi’s 329 and 2004. (B) EMSA analysis of RPA–DNA interaction inhibition by 329 and 2004. Lanes 3–6 in each panel contain 6.25, 12.5, 25, and 50 µM of the indicated RPAi, respectively. The * indicates the position of the Escherichia coli SSB–single-stranded DNA (ssDNA) complex that serves as an internal specificity control. (C) Cell viability of H460 NSCLC cells in response to 329 and 2004.

CCOc1ccc2cc(C3CC(c4ccc(I)cc4)=NN3C(=O)CCCC(=O)NCCCN3CCOCC3)c(Cl)nc2c1 (stereo not drawn) [compound 329]
tumor growth ([1]; 40 mg/kg IP once daily from day 11, optimized formulation): significant reduction in tumor growth | terminal tumor weight ([1]; 40 mg/kg IP, day 32): significant smaller tumors | half-life ([2]; Rat microsomes): 21.7 min | microsomal CLint ([2]; Rat microsomes, read-out: CLint): 63.8 µL/min/mg | microsomal CLint ([2]; rat microsomes, read-out: rate of clearance): ~64 µL/min/mg | RPA inhibitory activity (RPA–DNA interaction, EMSA) [3]: potent RPA inhibitory activity
